In brackets after ≈: the same amount, converted by molar mass. Like-named read-outs stand apart in the source and are kept apart here.
How the values were obtained:
[1] = Physicochemical stability (2-week, open conditions); settings: for remaining at 336 h: 2-week; for remaining at 336 h / remaining at 240 h: read-out: Purity; for remaining at 240 h: 10-day
Text: SHIMADZU LC-20AD was employed to detect the chemical purity HPLC method for purity test

[2] = Hygroscopicity by DVS at 25 °C; type: physicochemical
Procedure: To understand the hygroscopicity of glutarate type A, DVS was employed to measure the mass change as a function of relative humidity at 25 °C (FIG. 14).
Dynamic vapour sorption was performed with ADVENTURE series DVS and Intrinsic-1 DVS at 25 °C under nitrogen blow. Approximately 30 milligrams of material were used. Anhydrate was analyzed using methods below: 0% RH to 95% RH to 0% RH at 10% RH (5% RH from 90% RH to 95% RH to 90% RH). After equilibrium at ambient conditions (50% RH), the hydrate sample was analyzed using method below: 1. Ambient relative humidity to 95% RH at 10% RH (5% from 90% RH to 95% RH). 2. 95% RH to 0% RH at 10% RH (5% from 95% RH to 90% RH). 3. 0% RH to 95% RH at 10% RH (5% RH from 90% RH to 95% RH).
The moisture sorption profile was generated at 25 °C using a DVS moisture balance flow system (Model Advantage 1.0) with the following conditions: sample size approximately 10 mg, drying 25 °C for 60 minutes, adsorption range 0% to 95% RH, desorption range 95% to 0% RH, and step interval 5%. The equilibrium criterion was <0.01% weight change in 5 minutes for a maximum of 120 minutes.

[3] = Approximate solubility of starting material at RT; type: physicochemical; settings: RT (~27 °C)
Procedure: The solubility of starting material (E0007-A01-02) was estimated at RT (~27 °C).
Specifically, approximate 2 mg of solid was added into an HPLC glass vial. The solvents below were then added stepwise ([…]) into the vials until the solids were dissolved or a total volume of 1.0 mL was reached.
The solubility data were used to guide the solvent selection in polymorph screening. Approximate solubility of starting material (E0007-A01-02) at RT: […]

[4] = Kinetic solubility (37 °C/24 h); type: physicochemical
[5] = Physicochemical stability (2-week, open conditions)
[6] = Polymorph form conversion / solid-state stability (XRPD, VT-XRPD); type: physicochemical
Procedure: To confirm stability and suitability of Ulodesine hemi-glutarate Type A, a polymorph screening was conducted to search for other potential crystal forms and identify the most suitable form to confirm the previous findings.
Using glutarate Type A as starting material, a polymorph screening was conducted under 100 conditions through methods of anti-solvent addition, solid vapor diffusion, liquid vapor diffusion, slow evaporation, polymer-induced crystallization, temperature cycling, slurry at room temperature (RT)/50 °C and slow cooling.
X-ray powder diffraction data at variable temperature was collected at on a Malvern Panalytical Empyrean diffractometer. Flat a few milligrams of sample on a sample holder and compact it by a glass slide with protection of a piece of weighting paper. An X-ray generator of 1800 W was employed at 45 kV and 40 mA and was equipped with an X-ray tube of Cu (Kα), with the Kα2/Kα1 intensity ratio of 0.50 (1.54439 Å/1.5406 Å). Data were collected from 3° to […] (2θ) at a step size of 0.026° (2θ) with time per step of 49.7 s.
Glutarate Type B (E0007-A01-06) was only observed by heating glutarate Type A to 130 °C using X-ray powder diffractometer at variable temperature mode (VT-XRPD).
Based on the characterization results, glutarate Type C was speculated as a channel hydrate (the water molecules of a channel hydrate lie next to other water molecules of adjoining unit cell, forming channels through the crystals).
Type C was re-prepared at 100 mg in triplicate via temperature cycling slurry in anisole/MeOH (1:2, v/v).

[7] = Drying stability (vacuum, RT/50/70 °C); type: physicochemical
Diet induced obese mice = settings: cited from earlier work
brown adipocytes = settings: via cAMP/protein kinase A signalling pathway; cited from earlier work
DIO mouse model [8] = test: Example 2: low and intermittent dosing in DIO mouse model; type: in vivo, C57/BL6J mice; settings: 2 mg/kg p.o., 3 days a week, vs control
Text: The aim of this study is to determine the effect of a low and intermittent dosing regime of ulodesine hemi glutarate on the following parameters: weight gain, food intake, fasting blood glucose concentration, serum insulin, serum cholesterol, plasma liver enzymes aspartate aminotransferase (AST) and alanine transaminase (ALT), inguinal white adipose tissue (iWAT), BAT; inosine in plasma and NAD+ in whole blood, and expression of lipogenesis (fatty acid synthesis) markers in iWAT and thermogenic markers in BAT. The study will assess ulodesine hemi glutarate efficacy on the listed parameters in the DIO mouse model of obesity and metabolic dysfunction.
Method: C57/BL6J mice were fed obesogenic diet D12492 (60 kcal % fat) from age 6 weeks. Nineteen week old mice (approximately 50 g) were either treated with vehicle (control) or ulodesine hemi glutarate at 2 mg/kg for 3 days a week (days 1, 2 and 3), given orally, over a 28 day period. On day minus 2 and on day 28, animals were fasted for 6 hr (only food withdrawn) and blood was collected for both blood glucose and cholesterol. On day 28 plasma liver enzymes (AST and ALT) and insulin were determined and additional plasma and whole blood was frozen and used for inosine and NAD+ measurement. BAT and iWAT was collected at the end of the study, weighed and quantitative PCR was performed for the lipogenesis markers Stearoyl CoA desaturase 1 (SCD-1) and fatty acid synthetase (FAS) and the thermogenesis marker uncoupling protein 1 (UCP-1). Inosine and NAD+ levels in stored plasma and whole blood respectively were determined by LC/MS/MS.

DIO mouse model [9] = test: Example 3: liver parameters in DIO mouse model; type: in vivo, C57/BL6J mice; settings: 2 mg/kg p.o., 3 days a week, 8 weeks
Text: The aim of this study is to determine the effect of low and intermittent dosing of ulodesine hemi glutarate on the liver parameters: liver weight, total cholesterol, triglycerides, AST and ALT. The study assessed ulodesine hemi glutarate efficacy on the listed parameters in the DIO mouse model of obesity and metabolic dysfunction.
Method: C57/BL6J mice were fed obesogenic diet D12492 (60 kcal % fat) from age 6 weeks. Eighteen weeks old mice (approximately 40 g) were either treated with vehicle (control) or ulodesine hemi glutarate at 2 mg/kg for 3 days a week (days 1, 2 and 3) given orally for 8 weeks. At the end of eight weeks, the liver was removed and the following parameters were assessed: total cholesterol, triglycerides, AST and ALT.

Structure (SMILES): O=c1[nH]cnc2c(CN3C[C@H](CO)[C@@H](O)C3)c[nH]c12 [Glutarate Type A]
- remaining at 336 h ([1]; 25 °C/60% RH): 97.8%
- remaining at 336 h ([1]; 40 °C/75% RH): 97.7%
- remaining at 336 h ([1]; 60 °C): 97.3%
- remaining at 240 h ([1]; 25 °C/60% RH): 97.7%
- remaining at 240 h ([1]; 40 °C/75% RH): 97.8%
- remaining at 240 h ([1]; 60 °C): 97.6%
- Initial purity ([1]; initial): 97.9 area %
- water uptake ([2]; 25 °C/80% RH): 1.1%
- hygroscopicity ([2]; 25 °C/80% RH, in words): slightly hygroscopic
- water uptake ([2]; 25 °C/95% RH): 10.4%
- form change after DVS ([2]; XRPD after DVS): no form change
- solubility ([3]; H2O): > 36000 µg/mL
- solubility ([3]; organic solvent or mixture, 1,4-Dioxane): < 2000 µg/mL
- solubility ([3]; organic solvent or mixture, 2-MeTHF): < 1900 µg/mL
- solubility ([3]; organic solvent or mixture, ACN): < 1900 µg/mL
- solubility ([3]; organic solvent or mixture, Acetone/H2O (9:1)): < 1900 µg/mL
- solubility ([3]; organic solvent or mixture, Acetone): < 2100 µg/mL
- solubility ([3]; organic solvent or mixture, CPME): < 1900 µg/mL
- solubility ([3]; organic solvent or mixture, DCM/MeOH (1:1)): < 1900 µg/mL
- solubility ([3]; organic solvent or mixture, DCM): < 1800 µg/mL
- solubility ([3]; organic solvent or mixture, DMAc): 2000 to 6500 µg/mL (≈ 7.57 to 24.6 mM)
- solubility ([3]; organic solvent or mixture, DMF): 2300 to 7600 µg/mL (≈ 8.7 to 28.8 mM)
- solubility ([3]; organic solvent or mixture, DMSO): > 39600 µg/mL
- solubility ([3]; organic solvent or mixture, EtOAc): < 2100 µg/mL
- solubility ([3]; organic solvent or mixture, EtOH/H2O (2:1)): 22600 to 45200 µg/mL (≈ 85.5 to 171 mM)
- solubility ([3]; organic solvent or mixture, EtOH/H2O (4:1)): 2100 to 6900 µg/mL (≈ 7.95 to 26.1 mM)
- solubility ([3]; organic solvent or mixture, EtOH/H2O (9:1)): < 2000 µg/mL
- solubility ([3]; organic solvent or mixture, EtOH): < 2100 µg/mL
- solubility ([3]; organic solvent or mixture, IPA): < 1800 µg/mL
- solubility ([3]; organic solvent or mixture, IPAc): < 2000 µg/mL
- solubility ([3]; organic solvent or mixture, MEK): < 1900 µg/mL
- solubility ([3]; organic solvent or mixture, MIBK): < 1800 µg/mL
- solubility ([3]; organic solvent or mixture, MTBE): < 2000 µg/mL
- solubility ([3]; organic solvent or mixture, MeOH): 1900 to 6500 µg/mL (≈ 7.19 to 24.6 mM)
- solubility ([3]; organic solvent or mixture, NMP): 1900 to 6300 µg/mL (≈ 7.19 to 23.8 mM)
- solubility ([3]; organic solvent or mixture, THF/H2O (9:1)): < 2000 µg/mL
- solubility ([3]; organic solvent or mixture, THF): < 2000 µg/mL
- solubility ([3]; organic solvent or mixture, Toluene): < 1900 µg/mL
- solubility ([3]; organic solvent or mixture, n-Heptane): < 2000 µg/mL
- solubility kinetic at 24 h ([4]; FaSSIF): > 16800 µg/mL
- solubility kinetic at 24 h ([4]; FeSSIF): > 16800 µg/mL
- solubility kinetic at 24 h ([4]; SGF): > 16800 µg/mL
- solubility kinetic at 24 h ([4]; water): > 16800 µg/mL
- Form change ([5]; 2-week, 25 °C/60% RH): No
- Form change ([5]; 2-week, 40 °C/75% RH): No
- Form change ([5]; 2-week, 60 °C): No
- Form change ([5]; 10-day, 25 °C/60% RH): No
- Form change ([5]; 10-day, 40 °C/75% RH): No
- Form change ([5]; 10-day, 60 °C): No
- solid-state properties and stability ([6]; polymorph screening overall): good solid-state properties and stability
- change in crystallinity on vacuum drying ([7]; 70 °C): slight decrease
- change in crystallinity on vacuum drying ([7]; overnight, 50 °C): no change in crystallinity
- change in crystallinity on vacuum drying ([7]; overnight, RT): no change in crystallinity

Structure (SMILES): O=c1[nH]cnc2c(CN3C[C@H](CO)[C@@H](O)C3)c[nH]c12 [Glutarate Type B]
- form conversion on cooling back to RT ([6]; after heating to 130 °C, cooled to RT): quickly converted to glutarate Type A
- solid form stability ([6]; ambient condition): meta-stable form at ambient condition

Structure (SMILES): O=c1[nH]cnc2c(CN3C[C@H](CO)[C@@H](O)C3)c[nH]c12 [Glutarate Type C]
- form change after heating to 110 °C ([6]; 110 °C): no form change
- form change after drying ([6]; RT overnight): no form change
- Form change after heating ([6]; after heating): No
- stability compared with glutarate Type A ([6]; drying under ambient condition): lower stability compared with glutarate Type A
- form conversion after drying under ambient condition ([6]; wet cakes from screening, ~25 °C/30% RT): (partially) converted to glutarate Type A
- form conversion after drying under ambient condition ([6]; wet cakes, ~6 h (~20 °C/32% RH)): converted to glutarate Type A

Structure (SMILES): OC[C@H]1O[C@@H](n2cnc3c(O)ncnc32)[C@H](O)[C@@H]1O [inosine]
- weight (Diet induced obese mice; diet induced obese mice, daily for 26 days, vs vehicle): significant reduction in weight
- BAT dependent energy expenditure (Diet induced obese mice; mice): increased BAT dependent energy expenditure
- browning of white adipose tissue (Diet induced obese mice; mice): induced browning of white adipose tissue
- energy expenditure in brown adipocytes (brown adipocytes): stimulates energy expenditure

Structure (SMILES): O=c1[nH]cnc2c(CN3C[C@H](CO)[C@@H](O)C3)c[nH]c12 [ulodesine]
- blood glucose (DIO mouse model [8]; 28 days): decreases
- iWAT/Body weight % (DIO mouse model [8]; 28 days): significant decrease
- plasma cholesterol (DIO mouse model [8]; 28 days): decreases
- insulin levels (DIO mouse model [8]; day 28): decreases
- plasma ALT (DIO mouse model [8]; day 28): decreases
- plasma AST (DIO mouse model [8]; day 28): decreases
- liver ALT (DIO mouse model [9]): decreases in triglycerides and ALT with treatment they did not achieve statistical significance
- liver AST (DIO mouse model [9]): significant decrease
- liver total cholesterol (TC) (DIO mouse model [9]): significant decrease
- liver triglycerides (DIO mouse model [9]): decreases in triglycerides and ALT with treatment they did not achieve statistical significance

— US20260364078A1, “PURINE NUCLEOSIDE PHOSPHORYLASE INHIBITORS FOR THE TREATMENT OF METABOLIC SYNDROME AND ASSOCIATED CONDITIONS” (METASHAPE PHARMA AG, priority 2022, published 2026)
